Laboratory results from paper PMC6917776, “Discovery of a chemical probe for PRDM9” (Nature Communications, 2019).
Like-named read-outs stand apart in the source and are kept apart here.

Assay: CelltiterGlo viability cell assay
Type: cell-based
Conditions: human
Procedure, shortened: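 Mycoplasma-negative lines were plated at line-specific densities and treated with a compound titration (0.01–30 μM); CelltiterGlo signal at day 3 or 6 was referenced to DMSO control.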

[1] = CAL851 breast cancer cells, CAL851, 3 day, read-out: viability Average
[2] = CAL851 breast cancer cells, CAL851, 3 day, read-out: viability Replicate 1
[3] = CAL851 breast cancer cells, CAL851, 3 day, read-out: viability Replicate 2
[4] = CAL851 breast cancer cells, CAL851, 3 day, read-out: viability Replicate 3
[5] = CAL851 breast cancer cells, CAL851, 6 day, read-out: viability Average
[6] = CAL851 breast cancer cells, CAL851, 6 day, read-out: viability Replicate 1
[7] = CAL851 breast cancer cells, CAL851, 6 day, read-out: viability Replicate 2
[8] = CAL851 breast cancer cells, CAL851, 6 day, read-out: viability Replicate 3
[9] = CAL851 cells, CAL851, 3 day, read-out: viability Replicate 1
[10] = CAL851 cells, CAL851, 3 day, read-out: viability Replicate 2
[11] = HCC1143 breast cancer cells, HCC1143, 3 day, read-out: viability Average
[12] = HCC1143 breast cancer cells, HCC1143, 3 day, read-out: viability Replicate 1
[13] = HCC1143 breast cancer cells, HCC1143, 3 day, read-out: viability Replicate 2
[14] = HCC1143 breast cancer cells, HCC1143, 3 day, read-out: viability Replicate 3

COc1cc(OC)cc(-c2noc(N3CCN(C)C4(CCN(c5ccnc(C)c5)CC4)C3)n2)c1 [MRK-740]
viability at 3 day, 0.01 µM [1]: 95.7%
viability at 3 day, 0.01 µM [2]: 91.6%
viability at 3 day, 0.01 µM [3]: 94.6%
viability at 3 day, 0.01 µM [4]: 101%
viability at 3 day, 0.03 µM [1]: 94.4%
viability at 3 day, 0.03 µM [2]: 93.2%
viability at 3 day, 0.03 µM [3]: 92.2%
viability at 3 day, 0.03 µM [4]: 97.9%
viability at 3 day, 0.3 µM [1]: 98.9%
viability at 3 day, 0.3 µM [4]: 104%
viability at 3 day, 1 µM [1]: 98%
viability at 3 day, 1 µM [2]: 88.2%
viability at 3 day, 1 µM [3]: 93.7%
viability at 3 day, 1 µM [4]: 112%
viability at 3 day, 3 µM [1]: 88%
viability at 3 day, 3 µM [2]: 88.9%
viability at 3 day, 3 µM [3]: 78.6%
viability at 3 day, 3 µM [4]: 96.5%
viability at 3 day, 9.5 µM [1]: 72%
viability at 3 day, 9.5 µM [2]: 69.7%
viability at 3 day, 9.5 µM [3]: 68.9%
viability at 3 day, 9.5 µM [4]: 77.4%
viability at 3 day, 30 µM [1]: 21.2%
viability at 3 day, 30 µM [2]: 18.4%
viability at 3 day, 30 µM [3]: 24.5%
viability at 3 day, 30 µM [4]: 20.7%
viability at 6 day, 0.01 µM [5]: 113%
viability at 6 day, 0.01 µM [6]: 109%
viability at 6 day, 0.01 µM [7]: 118%
viability at 6 day, 0.01 µM [8]: 113%
viability at 6 day, 0.03 µM [5]: 114%
viability at 6 day, 0.03 µM [6]: 103%
viability at 6 day, 0.03 µM [7]: 114%
viability at 6 day, 0.03 µM [8]: 126%
viability at 6 day, 0.1 µM [5]: 129%
viability at 6 day, 0.1 µM [6]: 116%
viability at 6 day, 0.1 µM [7]: 126%
viability at 6 day, 0.1 µM [8]: 145%
viability at 6 day, 0.3 µM [5]: 118%
viability at 6 day, 0.3 µM [6]: 121%
viability at 6 day, 0.3 µM [7]: 117%
viability at 6 day, 0.3 µM [8]: 115%
viability at 6 day, 1 µM [5]: 117%
viability at 6 day, 1 µM [6]: 109%
viability at 6 day, 1 µM [7]: 108%
viability at 6 day, 1 µM [8]: 134%
viability at 6 day, 3 µM [5]: 100%
viability at 6 day, 3 µM [6]: 93.2%
viability at 6 day, 3 µM [7]: 104%
viability at 6 day, 3 µM [8]: 104%
viability at 6 day, 9.5 µM [5]: 73.1%
viability at 6 day, 9.5 µM [6]: 59.9%
viability at 6 day, 9.5 µM [7]: 75.6%
viability at 6 day, 9.5 µM [8]: 83.9%
viability at 6 day, 30 µM [5]: 14.9%
viability at 6 day, 30 µM [6]: 22.8%
viability at 6 day, 30 µM [7]: 11.9%
viability at 6 day, 30 µM [8]: 10%
viability at 3 day, 0.1 µM (CAL851 cells, CAL851, 3 day, read-out: viability Average): 99.9%
viability at 3 day, 0.1 µM [9]: 97.5%
viability at 3 day, 0.1 µM [10]: 91.8%
viability at 3 day, 0.1 µM (CAL851 cells, CAL851, 3 day, read-out: viability Replicate 3): 111%
viability at 3 day, 0.3 µM [9]: 94.7%
viability at 3 day, 0.3 µM [10]: 97.8%
viability at 3 day, 0.01 µM [11]: 96.2%
viability at 3 day, 0.01 µM [12]: 100%
viability at 3 day, 0.01 µM [13]: 94.8%
viability at 3 day, 0.01 µM [14]: 93.8%
viability at 3 day, 0.03 µM [11]: 94.8%
viability at 3 day, 0.03 µM [12]: 92.9%
viability at 3 day, 0.03 µM [13]: 94.1%
viability at 3 day, 0.03 µM [14]: 97.3%
viability at 3 day, 0.3 µM [11]: 98.1%
viability at 3 day, 0.3 µM [12]: 99.7%
viability at 3 day, 0.3 µM [13]: 97.7%
viability at 3 day, 0.3 µM [14]: 96.9%
viability at 3 day, 1 µM [11]: 97.8%
viability at 3 day, 1 µM [12]: 101%
viability at 3 day, 1 µM [13]: 93.9%
viability at 3 day, 1 µM [14]: 98.8%
viability at 3 day, 3 µM [11]: 92.9%
viability at 3 day, 3 µM [12]: 94.7%
viability at 3 day, 3 µM [13]: 91%
viability at 3 day, 3 µM [14]: 93%
viability at 3 day, 9.5 µM [11]: 71.7%
viability at 3 day, 9.5 µM [12]: 73.8%
viability at 3 day, 9.5 µM [13]: 69.4%
viability at 3 day, 9.5 µM [14]: 72%
viability at 3 day, 30 µM [11]: 25.7%
viability at 3 day, 30 µM [12]: 27.4%
viability at 3 day, 30 µM [13]: 27.1%
viability at 3 day, 30 µM [14]: 22.6%
viability at 6 day, 0.03 µM (HCC1143 breast cancer cells, HCC1143, 6 day, read-out: viability Average): 101%
viability at 6 day, 0.03 µM (HCC1143 breast cancer cells, HCC1143, 6 day, read-out: viability Replicate 1): 96.8%
viability at 6 day, 0.03 µM (HCC1143 breast cancer cells, HCC1143, 6 day, read-out: viability Replicate 2): 101%
